Results on two molecules are retold here after patent publication US20200079860A1, “METHODS AND COMPOSITIONS FOR TUMOR THERAPY” (MEMORIAL SLOAN KETTERING CANCER CENTER, priority 2015, published 2020).

The experiment deals with B16F10 cells. In words: mouse bilateral tumor model (B16 murine melanoma); one tumor injected, contralateral non-injected. Format: in vivo, C57BL/6 mice.

Protocol: By injecting only one of two tumors throughout the course of the experiment it is possible to separate the effect of the injected tumor from the “abscopal” effect on the distant non-injected tumor. Once treatment begins, tumors are measured twice weekly for at least 90 days.
Also, unless indicated otherwise, controls were treated with isotype control antibodies and vehicle only. Furthermore, unless indicated otherwise, all experiments were performed using the mouse bilateral tumor model described below and summarized in FIG. 2.
The animals used had large tumors in two opposite flanks. One tumor was injected while the second remained non-injected (FIG. 2), allowing separate analysis of the effect at the injected tumor from the so-called ‘abscopal’ effect at the non-injected tumor, in order to understand how this treatment could benefit patients with metastatic cancer. […] C57BL/6 mice were initially implanted with 5×10^5 syngeneic B16F10 cells intra-dermally in bilateral flanks. 8 days post tumor cell implantation, when bilateral tumors measured ˜0.5 cm, intratumoral (IT) treatment with various test agents was initiated together with intraperitoneal (IP) anti-PD-1 mAb. […]
8 days post tumor cell implantation, when bilateral tumors measured ˜0.5 cm, intratumoral (IT) treatment with agents selected to activate APCs was initiated together with intraperitoneal (IP) anti-PD-1 mAb. […]

As to `O=C1[O][Pt]2([NH][C@@H]3CCCC[C@H]3[NH]2)[O]C1=O` [oxaliplatin], the “survival on concurrent addition of systemic chemotherapy” value (added IP to intratumoral MPL, anti-IL10R, and anti-CD40) is “increased survival”. Turning to PolyIC, the “substitution for MPL in the treatment” value (FIG. 35B) was “can be substituted for MPL, albeit possibly with slightly reduced activity”.
